Patent publication US11033642B2, “Multidentate bifunctional chelating agents for radionuclide complexation in diagnostics and therapy” (UNIVERSITAT ZURICH, priority 2014, dated 2021)

Test: Solubility observed during complexation
Assay type: physicochemical
Experimental: Ligand II is not soluble either in 0.1 M HCl or in H2O. The complexation was carried out in MeOH using zirconium (IV) acetylacetonate [Zr(acac)4]. A mixture of ligand II (50 mg, 0.058 mmol) and Zr(acac)4 (28.3 mg, 0.058 mmol) in 15 mL MeOH was heated at reflux for 15 h with continuous stirring under N2 atmosphere. The solvent was then removed and the residue was then washed with Et2O (20 mL) and acetone (10 mL). The compound was obtained as off white solid (48 mg, 87%). The compound is it not soluble in common organic solvents including DMSO. […] Therefore due to the limited solubility NMR spectra of the compound could not be obtained. However, the formation of the complex can be confirmed using LC-MS. Elemental analysis calculated for C38H64N8O14Zr.6H2O.(CH3)2CO3C, 44.19, H, 7.42, N, 10.06. Found C, 44.11, H, 7.04, N, 10.16.

- solubility in 0.1 M HCl (0.1 M HCl): not soluble
- solubility in H2O (H2O): not soluble
Structure (SMILES): CC(=O)N(O)CCCCCNC(=O)CCC(=O)N(O)CCCCCNC(=O)CCC(=O)N(O)CCCCCNC(=O)CCC(=O)N(O)CCCCCNC(=O)CCC(=O)O [Ligand II, 4-[5-[[4-[5-[[4-[5-[[4-[5-[acetyl(hydroxy)amino]pentylamino]-4-oxo-butanoyl]-hydroxy-amino]pentylamino]-4-oxo-butanoyl]-hydroxy-amino]pentylamino]-4-oxo-butanoyl]-hydroxy-amino]pentylamino]-4-oxo-butanoic acid]
